Experimental data: publication PMC4492822 (EMBO Molecular Medicine, 2015)

Experiments:
A549 = experiment: Annexin V / PI flow cytometry, 72 h; assay type: cell-based, human
Procedure: Histograms depicting early apoptosis (Annexin V positive) and late apoptosis (PI positive) in cells treated with the indicated amounts of RK-33. Cells were either treated with DMSO (controls) or IC50 and IC75 amounts of RK-33. After 72 hours incubation, cells were harvested and stained for Annexin V and PI and analyzed by flow cytometry.

H1299 cells [1] = experiment: Cell cycle analysis by flow cytometry; assay type: cell-based; conditions: 0, 2, 4, and 6 μM, dose-dependent
Procedure: A549 and H1299 cells were plated at 1 × 10^5 cells per well of a 6-well plate. Cell cycle was carried out as previously described (Vesuna et al, [2012]). Briefly, cells were trypsinized 24 h after plating and fixed in 70% ethanol overnight at −20°C. Fixed cells were washed with PBS and resuspended in DNA-staining solution (5 μg/ml propidium iodide, 0.5 mg/ml RNase A) for 1 h at room temperature. Cell cycle acquisition was performed on a FACScan I or FACSCalibur instrument (BD Biosciences, San Jose, CA, USA). Independent experiments were repeated three times. Data were analyzed using FlowJo software (Tree Star Inc., Ashland, OR, USA).

H1299.EJ cells = experiment: Non-homologous end-joining reporter assay; assay type: cell-based; conditions: 4–6 μM
Procedure: NHEJ was assessed by the functional reporter system H1299-EJ, provided by E Dikomey. […] When these sites are incised by I-SceI, the artificial start codon is removed creating a DSB. Repair of this DSB by NHEJ restores GFP expression, so that cells capable for NHEJ can be identified by their GFP fluorescence intensity (Kriegs et al, [2010]). H1299.EJ cells were plated in a 6-well plate (1 × 10^5 cell/well) and treated with 4–6 μM RK-33. The following day, cells were transfected (in duplicates) with 1–2 μg of pSceI or pEGFP construct using TransIT-LT1 (Mirus, Madison, WI, USA) in serum-free media (Opti-MEM, Invitrogen, Carlsbad, CA, USA). Media was replaced after 4–6 h with complete media. Subsequently, cells were harvested by trypsinization, washed in PBS, and resuspended in 0.5 ml PBS. NHEJ activity was measured on a FACScan I instrument and analyzed on FlowJo software. Recombination frequency was calculated as ((% pSceI − % negative control) / % pEGFP). H1299-DR-GFP cells, provided by RG Bristow, were used to measure homologous recombination similarly as described above (Chan et al, [2008]).

[2] = parameters: species or system SCID mice; conditions: mouse, in vivo
Procedure: Figure 5 Toxicity studies of RK-33 in mice • Following injection of 20 mg/kg of RK-33, twice a week for 7 weeks, extensive histopathological examination was carried out following necropsy. Identical patterns were observed both in the control and in the treated mice (n = 2). Samples were stained with H&E. Scale bar is 50 μm. • Pharmacokinetics of RK-33 in SCID mice at various time intervals. Results are mean ± SD from 5 mice. LC-MS/MS method was used to determine concentration of RK-33 in mouse plasma and tissue. • Liquid chromatography–mass spectrometry (LC-MS/MS) analysis was performed to determine different metabolites of RK-33. • RK-33 and metabolites characterized by LC-MS/MS in human liver microsomes using the scan mode function of the LC-MS/MS. • HAPI cells were treated with RK-33 (10 μM), HA14-1 (25 μM), or DMSO vehicle, followed by oligomycin (oligo, 0.5 μg/ml), FCCP (3 μM), and antimycin A (AA, 1 μM) while oxygen consumption rate (OCR) was measured. Pyruvate (10 mM) was added in combination with FCCP to ensure that substrate supply was not rate-limiting for maximal OCR. Data are mean ± SD from 2 to 3 wells and representative of independent experiments performed with two different HAPI passages. […] Significance was assessed by two-sided, unpaired t-test. […]

H1299 cells [3] = experiment: qRT-PCR of TCF-regulated genes; assay type: cell-based
Excerpt: RNA was extracted according to the manufacturer's instructions (Qiagen, Valencia, CA, USA), and cDNA was manufactured using qScript cDNA synthesis kit (Quanta BioSciences, Gaithersburg, MD, USA), followed by qPCR using SYBR green (Quanta BioSciences) on an iCycler5 (Bio-Rad, Hercules, CA, USA). Amplification of 36B4, a housekeeping gene, was used for normalizing gene expression values.

With “diimidazo[4,5-d:4′,5′-f]-[1,3]diazepine [RK-33]” the “cells in gate of Annexin V/PI plot” value (A549; 9 uM, first (upper) value of panel) was 81.7, the “cells in gate of Annexin V/PI plot” value (A549; 9 uM, second value of panel) was 4.44 and the “cells in gate of Annexin V/PI plot” value (A549; 9 uM, third (lowest) value of panel) was 4.73. For the same substance, the “cells in gate of Annexin V/PI plot” value (A549; 10.5 uM, first (upper) value of panel) was 85.3, the “cells in gate of Annexin V/PI plot” value (A549; 10.5 uM, second value of panel) was 5.99 and the “cells in gate of Annexin V/PI plot” value (A549; 10.5 uM, third (lowest) value of panel) was 2.26. For the same substance, the cell cycle effect (H1299 cells [1]) was “G1 arrest”, the “reduction of NHEJ” value (H1299.EJ cells) was 38% and the “accumulation in organs (biodistribution)” value [2] was “able to accumulate at therapeutic dose in various organs”. For the same substance, the “reduction of Axin-2 mRNA expression” value (H1299 cells [3]) was 1.8 fold and the “reduction of Cyclin D1 mRNA expression” value (H1299 cells [3]) was 2.4 fold.
